Test [1] has as its system Puccinia recondita f. Sp. Tritici. In words: Puccinia recondita f. sp. tritici / wheat / leaf disc curative (brown rust). The class given is in vivo. The note with it: foliar, 144 h, 200 ppm in the applied formulation, wheat leaf segments cv. Kanzler, applied 1 day after inoculation, assessed 6 to 8 days after application, vs untreated, read-out: disease control. The method, then: (§1) Leaf disks or leaf segments of various plant species are cut from plants grown in a greenhouse. The cut leaf disks or segments are placed in multiwell plates (24-well format) onto water agar. The leaf disks are sprayed with a test solution before (preventative) or after (curative) inoculation. Compounds to be tested are prepared as DMSO solutions (max. 10 mg/ml) which are diluted to the appropriate concentration with 0.025% Tween20 just before spraying. The inoculated leaf disks or segments are incubated under defined conditions (temperature, relative humidity, light, etc.) according to the respective test system. A single evaluation of disease level is carried out 3 to 14 days after inoculation, depending on the pathosystem. Percent disease control relative to the untreated check leaf disks or segments is then calculated.
Wheat leaf segments cv. Kanzler are placed on agar in multiwell plates (24-well format). The leaf segments are then inoculated with a spore suspension of the fungus. Plates were stored in darkness at 19° C. and 75% relative humidity. The formulated test compound diluted in water was applied 1 day after inoculation. The leaf segments were incubated at 19° C. and 75% relative humidity under a light regime of 12 hours light/12 hours darkness in a climate cabinet and the activity of a compound was assessed as percent disease control compared to untreated when an appropriate level of disease damage appears in untreated check leaf segments (6 to 8 days after application).
(§2) The following compounds at 200 ppm in the applied formulation give at least 80% disease control in this test when compared to untreated control leaf disks under the same conditions, which show extensive disease development.

The subject of test [2] is Glomerella Lagenarium (Colletotrichum Lagenarium). In words: Glomerella lagenarium (Colletotrichum lagenarium) liquid culture / cucumber / preventative (anthracnose). It is filed as cell-based. The note with it: Colletotrichum orbiculare; 20 ppm in the applied formulation; liquid culture in PDB, 24° C., inhibition of growth measured photometrically 3 to 4 days after application, vs untreated; read-out: disease control. The method, then:
Mycelia fragments or conidia suspensions of a fungus prepared either freshly from liquid cultures of the fungus or from cryogenic storage, are directly mixed into nutrient broth. DMSO solutions of the test compound (max. 10 mg/ml) are diluted with 0.025% Tween20 by a factor of 50 and 10 μl of this solution is pipetted into a microtiter plate (96-well format). The nutrient broth containing the fungal spores/mycelia fragments is then added to give an end concentration of the tested compound. The test plates are incubated in the dark at 24° C. and 96% relative humidity. The inhibition of fungal growth is determined photometrically after 2 to 7 days, depending on the pathosystem, and percent antifungal activity relative to the untreated check is calculated.
Conidia of the fungus from cryogenic storage are directly mixed into nutrient broth (PDB—potato dextrose broth). After placing a (DMSO) solution of test compound into a microtiter plate (96-well format), the nutrient broth containing the fungal spores is added.
The following compounds at 20 ppm in the applied formulation give at least 80% disease control in this test when compared to untreated control under the same conditions, which show extensive disease development.

Test [3] deals with Puccinia recondita f. Sp. Tritici. The test can be described thus: Puccinia recondita f. sp. tritici / wheat / leaf disc preventative (brown rust). The class given is in vivo. The conditions noted are these: foliar, 168 h, 200 ppm in the applied formulation, wheat leaf segments cv. Kanzler, preventative, inoculated 1 day after application, assessed 7 to 9 days after application, vs untreated, read-out: disease control. As to the method: as §1
Wheat leaf segments cv. Kanzler were placed on agar in multiwell plates (24-well format) and sprayed with the formulated test compound diluted in water. The leaf disks were inoculated with a spore suspension of the fungus 1 day after application. The inoculated leaf segments were incubated at 19° C. and 75% relative humidity (rh) under a light regime of 12 hours light/12 hours darkness in a climate cabinet and the activity of a compound was assessed as percent disease control compared to untreated when an appropriate level of disease damage appears in untreated check leaf segments (7 to 9 days after application).
as §2

Structures are written as SMILES. Bounds are passed on as bounds.

On to `FC(F)(F)c1nc(-c2ccc(Cn3ncnc3C(F)(F)F)cc2)no1` [Compound 1.38, 5-(trifluoromethyl)-3-[4-[[5-(trifluoromethyl)-1,2,4-triazol-1-yl]methyl]phenyl]-1,2,4-oxadiazole], for which the pest or weed control at 200 ppm in test [1] was not below 80%. In addition, the inhibition of growth at 20 ppm in test [2] was not below 80%.

`FC(F)(F)c1nc(-c2ccc(Cn3cc(I)cn3)cc2)no1` [Compound 1.44, 3-[4-[(4-iodopyrazol-1-yl)methyl]phenyl]-5-(trifluoromethyl)-1,2,4-oxadiazole]: the pest or weed control at 200 ppm in test [1] and in test [3] was not below 80% each time. In addition, the inhibition of growth at 20 ppm in test [2] is not below 80%.

In the case of `N#Cc1ncn(Cc2ccc(-c3noc(C(F)(F)F)n3)cc2)c1C#N` [Compound 1.45, 1-[[4-[5-(trifluoromethyl)-1,2,4-oxadiazol-3-yl]phenyl]methyl]imidazole-4,5-dicarbonitrile], the pest or weed control at 200 ppm in test [1] and in test [3] was not below 80% throughout. Further, the inhibition of growth at 20 ppm in test [2] is not below 80%.

In the case of `FC(F)(F)c1nc(-c2ccc(Cn3cnc(Cl)c3Cl)cc2)no1` [Compound 1.46, 3-[4-[(4,5-dichloroimidazol-1-yl)methyl]phenyl]-5-(trifluoromethyl)-1,2,4-oxadiazole], the pest or weed control at 200 ppm in test [1] and in test [3] was not below 80% throughout. Besides, the inhibition of growth at 20 ppm in test [2] is not below 80%.

As to `Fc1ccc2ccn(Cc3ccc(-c4noc(C(F)(F)F)n4)cc3)c2c1` [Compound 1.54, 3-[4-[(6-fluoroindol-1-yl)methyl]phenyl]-5-(trifluoromethyl)-1,2,4-oxadiazole], the pest or weed control at 200 ppm in test [1] was not below 80%. Further, in test [2], the inhibition of growth at 20 ppm is not below 80%.

For `FC(F)(F)c1cnn(Cc2ccc(-c3noc(C(F)(F)F)n3)cc2)c1` [Compound 1.55, 5-(trifluoromethyl)-3-[4-[[4-(trifluoromethyl)pyrazol-1-yl]methyl]phenyl]-1,2,4-oxadiazole], the pest or weed control at 200 ppm in test [1] and in test [3] was not below 80% each time. In addition, the inhibition of growth at 20 ppm in test [2] was not below 80%.

For `O=Cc1cccn1Cc1ccc(-c2noc(C(F)(F)F)n2)cc1` [Compound 1.62, 1-[[4-[5-(trifluoromethyl)-1,2,4-oxadiazol-3-yl]phenyl]methyl]pyrrole-2-carbaldehyde], the pest or weed control at 200 ppm in test [1] and in test [3] was not below 80% each time. Moreover, the inhibition of growth at 20 ppm in test [2] was not below 80%.

On to `FC(F)(F)c1nc(-c2ccc(Cn3cc(Cl)cn3)cc2)no1` [Compound 1.67, 3-[4-[(4-chloropyrazol-1-yl)methyl]phenyl]-5-(trifluoromethyl)-1,2,4-oxadiazole], for which the pest or weed control at 200 ppm in test [1] and in test [3] was not below 80% throughout. The inhibition of growth at 20 ppm in test [2] is not below 80%.

Regarding `O=Cc1nccn1Cc1ccc(-c2noc(C(F)(F)F)n2)cc1` [Compound 1.71, 1-[[4-[5-(trifluoromethyl)-1,2,4-oxadiazol-3-yl]phenyl]methyl]imidazole-2-carbaldehyde], the pest or weed control at 200 ppm in test [1] was not below 80%.

`FC(F)(F)c1nc(-c2ccc(Cn3cc(Br)cn3)cc2)no1` [Compound 1.77, 3-[4-[(4-bromopyrazol-1-yl)methyl]phenyl]-5-(trifluoromethyl)-1,2,4-oxadiazole]: the pest or weed control at 200 ppm in test [1] was not below 80%. Further, in test [2], the inhibition of growth at 20 ppm was not below 80%.

Take `Cc1cn(Cc2ccc(-c3noc(C(F)(F)F)n3)cc2)c(C)n1` [Compound 1.78, 3-[4-[(2,4-dimethylimidazol-1-yl)methyl]phenyl]-5-(trifluoromethyl)-1,2,4-oxadiazole]: in test [1], the pest or weed control at 200 ppm is not below 80%.

As to `Cc1cn(Cc2ccc(-c3noc(C(F)(F)F)n3)cc2Cl)cn1` [Compound 1.109, 3-[3-chloro-4-[(4-methylimidazol-1-yl)methyl]phenyl]-5-(trifluoromethyl)-1,2,4-oxadiazole], in test [3], the pest or weed control at 200 ppm was not below 80%. Further, the inhibition of growth at 20 ppm in test [2] was not below 80%.

`FC(F)(F)c1nc(-c2ccc(Cn3ccnc3)c(Cl)c2)no1` [Compound 1.112, 3-[3-chloro-4-(imidazol-1-ylmethyl)phenyl]-5-(trifluoromethyl)-1,2,4-oxadiazole]: the pest or weed control at 200 ppm in test [3] was not below 80%. For the same compound, the inhibition of growth at 20 ppm in test [2] was not below 80%.

For `COC(=O)c1ncn(Cc2ccc(-c3noc(C(F)(F)F)n3)cc2F)n1` [Compound 1.122, methyl 1-[[2-fluoro-4-[5-(trifluoromethyl)-1,2,4-oxadiazol-3-yl]phenyl]methyl]-1,2,4-triazole-3-carboxylate], in test [3], the pest or weed control at 200 ppm is not below 80%. Besides, in test [2], the inhibition of growth at 20 ppm is not below 80%.

Take `Cc1nccn1Cc1ccc(-c2noc(C(F)(F)F)n2)cc1F` [Compound 1.123, 3-[3-fluoro-4-[(2-methylimidazol-1-yl)methyl]phenyl]-5-(trifluoromethyl)-1,2,4-oxadiazole]: the pest or weed control at 200 ppm in test [1] and in test [3] was not below 80% throughout.

Consider `Fc1cc(-c2noc(C(F)(F)F)n2)ccc1Cn1cnc2ccccc21` [Compound 1.126, 3-[4-(benzimidazol-1-ylmethyl)-3-fluoro-phenyl]-5-(trifluoromethyl)-1,2,4-oxadiazole], for which the pest or weed control at 200 ppm in test [3] is not below 80%. Also, the inhibition of growth at 20 ppm in test [2] was not below 80%.

Take `Cc1cn(Cc2ccc(-c3noc(C(F)(F)F)n3)cn2)c(C)n1` [Compound 1.134, 3-[6-[(2,4-dimethylimidazol-1-yl)methyl]-3-pyridyl]-5-(trifluoromethyl)-1,2,4-oxadiazole]: the pest or weed control at 200 ppm in test [1] is not below 80%.

For the compound `FC(F)(F)c1nc(-c2ccc(Cn3ccnc3)nc2)no1` [Compound 1.141, 3-[6-(imidazol-1-ylmethyl)-3-pyridyl]-5-(trifluoromethyl)-1,2,4-oxadiazole], the pest or weed control at 200 ppm in test [1] and in test [3] was not below 80% each time.

`FC(F)(F)c1nc(-c2ccc(Cn3cncn3)nc2)no1` [Compound 1.143, 3-[6-(1,2,4-triazol-1-ylmethyl)-3-pyridyl]-5-(trifluoromethyl)-1,2,4-oxadiazole]: the pest or weed control at 200 ppm in test [1] is not below 80%. In addition, the inhibition of growth at 20 ppm in test [2] was not below 80%.

Regarding `Cc1cn(Cc2ccc(-c3noc(C(F)(F)F)n3)cc2F)c(C)n1` [Compound 1.145, 3-[4-[(2,4-dimethylimidazol-1-yl)methyl]-3-fluoro-phenyl]-5-(trifluoromethyl)-1,2,4-oxadiazole], the pest or weed control at 200 ppm in test [1] and in test [3] was not below 80% each time.

Regarding `O=C(NCC1CC1)c1cnn(Cc2ccc(-c3noc(C(F)(F)F)n3)cc2)c1` [Compound 1.249, N-(cyclopropylmethyl)-1-[[4-[5-(trifluoromethyl)-1,2,4-oxadiazol-3-yl]phenyl]methyl]pyrazole-4-carboxamide], the pest or weed control at 200 ppm in test [3] is not below 80%. The inhibition of growth at 20 ppm in test [2] was not below 80%.

As for `N#Cc1ncnn1Cc1ccc(-c2noc(C(F)(F)F)n2)nc1` [Compound 1.258, 2-[[6-[5-(trifluoromethyl)-1,2,4-oxadiazol-3-yl]-3-pyridyl]methyl]-1,2,4-triazole-3-carbonitrile], the pest or weed control at 200 ppm in test [1] was not below 80%. Further, the inhibition of growth at 20 ppm in test [2] was not below 80%.

As to `CNC(=O)c1cn(Cc2ccc(-c3noc(C(F)(F)F)n3)cc2)nn1` [Compound 1.272, N-methyl-1-[[4-[5-(trifluoromethyl)-1,2,4-oxadiazol-3-yl]phenyl]methyl]triazole-4-carboxamide], the pest or weed control at 200 ppm in test [1] is not below 80%.

Consider `CON=C1CCN(Cc2ccc(-c3noc(C(F)(F)F)n3)cc2)CC1` [Compound 1.293, N-methoxy-1-[[4-[5-(trifluoromethyl)-1,2,4-oxadiazol-3-yl]phenyl]methyl]piperidin-4-imine], for which the pest or weed control at 200 ppm in test [1] was not below 80%.

The values are drawn from patent US10798941B2, “Microbiocidal oxadiazole derivatives” (SYNGENTA PARTICIPATIONS AG, priority 2016, dated 2020).
